Read-outs that look alike come from different tables or passages of the source. Marks after values point to notes of the source that are not given here.
How the values were obtained:
(h)DAT [1] = target: T1, (h)DAT (Homo sapiens, UniProt Q01959); test: competition binding with [125I]RTI-55 at (h)DAT stably expressed in HEK293 cells; details: mean ± standard error of three independent experiments
T1 construct: expressed in transfected cells

(h)DAT [2] = target: T1, (h)DAT; test: block of [3H]dopamine reuptake in HEK-(h)DAT cells; assay type: cell-based
mice [3] = test: locomotor activity, 1-h observation protocol; assay type: in vivo; details: for Locomotor Activity 1-Hour ED50 / ED50: dose to produce 50% of the compound's maximal effect, 1-h; for Emax / ED50: Mus musculus; for Emax: 0.5 h, read-out: Locomotor Activity 1-Hour % Peak Cocaine
mice [4] = test: locomotor activity, 8-h time course protocol; assay type: in vivo; details: for Locomotor Activity 8-Hour Time, min Period, max: time period of maximum effect; for locomotor stimulant activity across the 1-h and 8-h protocols, in words: 1-h and 8-h tests compared; for ED50 / Emax: Mus musculus; for ED50: read-out: Locomotor Activity 8-Hour ED50; for Emax: read-out: Locomotor Activity 8-Hour % Peak Cocaine, percent of cocaine's maximal effect, 30 min period of maximum stimulation; for Locomotor Activity 8-Hour Time, min Period, length: duration of locomotor activity
rats [5] = test: cocaine discrimination (2-lever operant), i.p. administration; details: Rattus norvegicus, ip; for responders at 5 mg/kg / responders at 10 mg/kg / responders at 25 mg/kg / responders at 50 mg/kg / responders at 100 mg/kg: read-out: % cocaine lever responding; for ED50: read-out: Full Generalization ED50
rats [6] = test: cocaine discrimination time-course study, oral administration; details: Rattus norvegicus, po, 0.75 h
(h)NET [7] = target: T2, (h)NET (Homo sapiens, UniProt P23975); test: block of [3H]norepinephrine reuptake in HEK-(h)NET cells; details: read-out: Uptake, IC50 [3H]NE; mean ± standard error of three independent experiments
(h)NET [8] = target: T2, (h)NET; test: competition binding with [125I]RTI-55 at (h)NET stably expressed in HEK293 cells; details: read-out: Binding, Ki NET; mean ± standard error of three independent experiments
[9] = mean ± standard error of three independent experiments, read-out: Uptake, IC50 [3H]DA
[10] = dose to produce 50% of the compound's maximal effect, 8-h

T1 sequence (Q01959 whole entry): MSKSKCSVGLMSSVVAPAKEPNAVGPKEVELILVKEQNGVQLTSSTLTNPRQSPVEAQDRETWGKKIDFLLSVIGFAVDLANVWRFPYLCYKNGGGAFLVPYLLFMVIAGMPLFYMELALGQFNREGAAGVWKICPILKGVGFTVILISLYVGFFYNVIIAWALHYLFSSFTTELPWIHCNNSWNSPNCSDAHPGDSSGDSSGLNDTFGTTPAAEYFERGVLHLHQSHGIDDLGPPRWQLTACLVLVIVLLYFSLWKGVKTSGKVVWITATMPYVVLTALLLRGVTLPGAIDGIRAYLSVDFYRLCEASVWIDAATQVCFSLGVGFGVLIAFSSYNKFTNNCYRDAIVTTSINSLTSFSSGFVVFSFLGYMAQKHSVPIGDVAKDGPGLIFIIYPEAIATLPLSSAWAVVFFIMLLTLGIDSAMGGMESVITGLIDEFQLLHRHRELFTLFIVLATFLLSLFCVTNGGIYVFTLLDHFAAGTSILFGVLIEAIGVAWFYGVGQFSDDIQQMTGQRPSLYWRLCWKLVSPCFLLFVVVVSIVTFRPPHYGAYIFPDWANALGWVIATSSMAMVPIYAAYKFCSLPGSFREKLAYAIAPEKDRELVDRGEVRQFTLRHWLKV
T2 sequence (P23975 whole entry): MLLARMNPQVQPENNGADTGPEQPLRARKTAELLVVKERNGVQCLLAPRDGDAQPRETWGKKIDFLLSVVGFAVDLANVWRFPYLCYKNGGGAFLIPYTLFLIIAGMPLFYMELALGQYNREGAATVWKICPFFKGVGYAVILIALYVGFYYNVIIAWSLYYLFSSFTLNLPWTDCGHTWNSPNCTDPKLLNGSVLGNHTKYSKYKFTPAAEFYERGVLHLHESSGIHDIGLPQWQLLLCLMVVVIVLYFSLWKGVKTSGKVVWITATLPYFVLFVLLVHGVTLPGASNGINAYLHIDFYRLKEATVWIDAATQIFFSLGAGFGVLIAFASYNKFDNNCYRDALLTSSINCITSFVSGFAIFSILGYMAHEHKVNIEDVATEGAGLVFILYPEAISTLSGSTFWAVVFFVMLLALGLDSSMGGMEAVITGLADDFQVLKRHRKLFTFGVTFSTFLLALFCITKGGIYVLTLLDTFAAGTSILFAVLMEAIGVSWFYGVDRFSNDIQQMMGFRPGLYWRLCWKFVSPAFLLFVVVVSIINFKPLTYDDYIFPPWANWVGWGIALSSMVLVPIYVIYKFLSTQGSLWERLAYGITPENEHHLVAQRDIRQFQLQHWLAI

Structure (SMILES)	Ki ((h)DAT [1])	IC50 ((h)DAT [2]; [9])	Locomotor Activity 1-Hour ED50 (mice [3])	Locomotor Activity 8-Hour Time, min Period, max (mice [4])	responders at 5 mg/kg (rats [5])	responders at 10 mg/kg (rats [5])	responders at 25 mg/kg (rats [5])	responders at 50 mg/kg (rats [5])	Emax (mice [3])	ED50 (mice [3])	locomotor stimulant activity across the 1-h and 8-h protocols, in words (mice [4])	Emax (mice [4])	Locomotor Activity 8-Hour Time, min Period, length (mice [4])	other results
CC(NC(C)(C)C)C(=O)c1ccc(Cl)cc1 (stereo not drawn) [Compound 2f, 2-(N-tert-Butylamino)-4′-chloropropiophenone]	2200 nM	2320 nM	NE^f	180 to 210 min	0%	33%	17%	0%						responders at 100 mg/kg (rats [5]): 34%
Cc1ccc(C(=O)C(C)NC(C)(C)C)cc1 (stereo not drawn) [Compound 2h, 2-(N-tert-Butylamino)-4′-methylpropiophenone]				30 to 60 min	0%	0%	17%	67%	65%	8.77 mg/kg	weak stimulants in both tests	52%	60 to 140 min	ED50 (mice [4]; 8 h): 4.4 mg/kg; responders at 100 mg/kg (rats [5]): 10%; ED50 (rats [5]): 36.7 mg/kg
CC(NC(C)(C)C)C(=O)c1ccc(F)c(F)c1 (stereo not drawn) [Compound 2i, 2-tert-Butylamino-3′,4′-difluoropropiophenone]						2%	17%	47%	58%	54.6 mg/kg				
CC(NC(C)(C)C)C(=O)c1cc(F)cc(F)c1 (stereo not drawn) [Compound 2m, 2-(tert-Butylamino)-3′,5′-difluoropropiophenone]	5660 nM	5600 nM		0 to 30 min		17%	50%	83%	93%	39.7 mg/kg	strong stimulants in both studies	95%	280 min	ED50 (mice [4]; [10]): 33.7 mg/kg; ED50 (rats [5]): 17.9 mg/kg; ED50 (rats [6]): 43.6 mg/kg
CC(NC(C)(C)C)C(=O)c1cc(Cl)cc(Cl)c1 (stereo not drawn) [Compound 2n, 2-(tert-Butylamino)-3′,5′-dichloropropiophenone]			NE^f											
CCCCCC(NC(C)(C)C)C(=O)c1cccc(Cl)c1 (stereo not drawn) [Compound 2r, 2-(N-tert-Butylamino)-3′-chloroheptanophenone]	709 nM	1570 nM		60 to 90 min	0%	0%	34%	17%	66%	5.82 mg/kg	weak stimulants in both tests	78%	280 to 460 min	ED50 (mice [4]; [10]): 13.4 mg/kg; IC50 ((h)NET [7]): 2000 nM; Ki ((h)NET [8]): 4300 nM
CC(C)NC(C)C(=O)c1cccc(Cl)c1 (stereo not drawn) [Compound 2w, 2-(N-Isopropylamino)-3′-chloropropiophenone]	3980 nM			20 to 50 min					84%		activity similar to cocaine in the 1-h protocol but weakened significantly in the 8-h time-course study	65%	50 to 160 min	IC50 ((h)DAT [2]; [3H]DA, read-out: IC50 for DA uptake inhibition): 2000 nM; times less potent than bupropion as DA uptake inhibitor ((h)DAT [2]; relative to bupropion): 2 times; ED50 (mice [4]; 8 h): 7.4 mg/kg
COC(=O)[C@H]1[C@@H](OC(=O)c2ccccc2)C[C@@H]2CC[C@H]1N2C [cocaine, reference compound]			8.5-11^e mg/kg	0 to 30 min					100%	8.5 to 11 mg/kg		100%	40 to 100 min	

Reference: patent US10919841B2, “Monoamine reuptake inhibitors” (Research Triangle Institute, priority 2009, dated 2021)
